# According to patent publication US6706663B2, “Herbicidal 3-heterocyclic substituted benzisothiazole and benzisoxazole compounds” (Wyeth, priority 2000, dated 2004):
# Columns and labels:
# [1] = system: ECHCG (Echinochloa crus-galli); assay: Postemergence herbicidal evaluation; type: in vivo, (L.) Beau; details: for ECHCG herbicidal rating: postemergence
# Summary of the method: (§1)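 Visual 0–9 injury scores versus control plants, covering stand, vigour, malformation, size, chlorosis and general appearance, taken four to five weeks post-spray and averaged over replicate tests. Plants were sprayed at roughly two weeks old and held on greenhouse benches.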
# [2] = system: TRZAWR (Wheat, Winter, cv Riband); assay: Preemergence herbicidal evaluation; type: in vivo, Triticum aestivum; details: rated 4-5 weeks after treatment
# Summary of the method: (§2)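 Rating 0–9, visual, vs control; 4–5 wk after spraying seeded cups with compound in aq. acetone; conventional greenhouse care.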
# [3] = system: ABUTH (Abutilon theophrasti); assay: Postemergence herbicidal evaluation; type: in vivo, Medic.; details: for ABUTH herbicidal rating: postemergence
# Summary of the method: as §1
# [4] = system: CHEAL (Chenopodium album); assay: Postemergence herbicidal evaluation; type: in vivo, L.; details: for CHEAL herbicidal rating: postemergence
# Summary of the method: as §1
# [5] = system: CASOB (Cassia obtusifolia); assay: Postemergence herbicidal evaluation; type: in vivo, L.; details: for CASOB herbicidal rating: postemergence
# Summary of the method: as §1
# [6] = system: AMBEL (Ambrosia artemisifolia); assay: Postemergence herbicidal evaluation; type: in vivo, L.; details: for AMBEL herbicidal rating: postemergence
# Summary of the method: as §1
# [7] = system: ECHORC (Echinochloa oryzoides); assay: Flooded paddy, preemergence weed control; type: in vivo, Echinochloa oryzoides (Ard.) Fritsch.; details: rated 3-4 weeks after treatment, 0-9 rating scale
# Summary of the method: (§3)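 Preemergence, flooded: propagules planted at 0.5 cm depth in silt loam, water level maintained at 1.5 to 3 cm over soil, containers kept on greenhouse benches. Activity scored 0-9 by eye relative to a control plant.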
# [8] = system: SAGPY (Sagittaria pygmaea); assay: Flooded paddy, preemergence weed control; type: in vivo, L.; details: rated 3-4 weeks after treatment, 0-9 rating scale
# Summary of the method: as §3
# [9] = system: GLXMAW (Soybean, Williams); assay: Postemergence herbicidal evaluation; type: in vivo, Glycine max, (L.) Merr. cv Williams; details: for GLXMAW herbicidal rating: postemergence
# Summary of the method: as §1
# [10] = system: GLXMAW (Soybean, Williams); assay: Preemergence herbicidal evaluation; type: in vivo, Glycine max, (L.) Merr. cv Williams; details: rated 4-5 weeks after treatment
# ZEAMX (Corn, Field) [11] = assay: Preemergence herbicidal evaluation; type: in vivo, Zea mays, L.; details: rated 4-5 weeks after treatment
# [12] = system: IPOHE (Ipomoea hederacea); assay: Postemergence herbicidal evaluation; type: in vivo, (L.) Jacq.; details: for IPOHE herbicidal rating: postemergence
# Summary of the method: as §1
# ZEAMX (Corn, Field) [13] = assay: Postemergence herbicidal evaluation; type: in vivo, Zea mays, L.; details: for ZEAMX herbicidal rating: postemergence
# Summary of the method: as §1
# CYPIR (Cyperus iria) = assay: Flooded paddy, preemergence weed control; type: in vivo; details: rated 3-4 weeks after treatment, 0-9 rating scale
# Summary of the method: as §3
# ORYSAT (Rice, Tebonnet) = assay: Preemergence herbicidal evaluation; type: in vivo, Oryza sativa, (L.) Tebonnet; details: rated 4-5 weeks after treatment
# [14] = system: IPOHE (Ipomoea hederacea); assay: Preemergence herbicidal evaluation; type: in vivo, (L.) Jacq.; details: rated 4-5 weeks after treatment
# GALAP (Galium aparine) [15] = assay: Preemergence herbicidal evaluation; type: in vivo; details: rated 4-5 weeks after treatment
# Summary of the method: as §2
# [16] = system: CYPSE (Cyperus serotinus); assay: Flooded paddy, preemergence weed control; type: in vivo, Rottb.; details: rated 3-4 weeks after treatment, 0-9 rating scale
# Summary of the method: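 Seeds or propagules were planted 0.5 cm deep in silt loam and flooded to 1.5–3 cm. Compounds in 50/50 v/v aqueous/acetone were pipetted into the flood water at about 0.0080 to 0.1250 kg/ha. After 3–4 weeks in the greenhouse, effect was rated visually on a 0–9 scale versus untreated control.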
# GALAP (Galium aparine) [17] = assay: Postemergence herbicidal evaluation; type: in vivo; details: for GALAP herbicidal rating: postemergence
# Summary of the method: as §1
# [18] = system: CHEAL (Chenopodium album); assay: Preemergence herbicidal evaluation; type: in vivo, L.; details: rated 4-5 weeks after treatment
# Summary of the method: as §2
# [19] = system: CASOB (Cassia obtusifolia); assay: Preemergence herbicidal evaluation; type: in vivo, L.; details: rated 4-5 weeks after treatment
# Summary of the method: as §2
# [20] = system: AMBEL (Ambrosia artemisifolia); assay: Preemergence herbicidal evaluation; type: in vivo, L.; details: rated 4-5 weeks after treatment
# Summary of the method: as §2
structure (smiles),measurement,setting,value
"Cn1c(C(F)(F)F)cc(=O)n(-c2ccc3snc(C4OCCCS4)c3c2)c1=O (stereo not shown) [Compound 34, 1-methyl-3-[3-(1,3-oxathian-2-yl)-1,2-benzisothiazol-5-yl]-6-(trifluoromethyl)uracil]",ECHCG herbicidal rating,[1]; rate 0.0320 kg/ha,3.0
same,ECHCG herbicidal rating,[1]; rate 0.0620 kg/ha,4.0
same,"Postemergence herbicidal rating, ECHCG",[1]; rate 0.0320 kg/ha,4.0
same,"Postemergence herbicidal rating, ECHCG",[1]; rate 0.0620 kg/ha,6.0
same,TRZAWR preemergence herbicidal rating,[2]; Rate 0.0620 kg/ha,5.0
same,Preemergence herbicidal rating TRZAWR,[2]; Rate 0.0620 kg/ha,5.0
same,TRZAWR preemergence herbicidal rating,[2]; Rate 0.1250 kg/ha,7.0
same,Preemergence herbicidal rating TRZAWR,[2]; Rate 0.1250 kg/ha,5.0
same,TRZAWR preemergence herbicidal rating,[2]; Rate 0.2500 kg/ha,8.0
same,Preemergence herbicidal rating TRZAWR,[2]; Rate 0.2500 kg/ha,7.0
same,ABUTH herbicidal rating,[3]; rate 0.0320 kg/ha,9.0
same,ABUTH herbicidal rating,[3]; rate 0.0620 kg/ha,9.0
same,"Postemergence herbicidal rating, ABUTH",[3]; rate 0.0320 kg/ha,9.0
same,"Postemergence herbicidal rating, ABUTH",[3]; rate 0.0620 kg/ha,9.0
same,CHEAL herbicidal rating,[4]; rate 0.0320 kg/ha,7.0
same,CHEAL herbicidal rating,[4]; rate 0.0620 kg/ha,9.0
same,"Postemergence herbicidal rating, CHEAL",[4]; rate 0.0320 kg/ha,7.0
same,"Postemergence herbicidal rating, CHEAL",[4]; rate 0.0620 kg/ha,9.0
same,CASOB herbicidal rating,[5]; rate 0.0320 kg/ha,6.0
same,CASOB herbicidal rating,[5]; rate 0.0620 kg/ha,6.0
same,"Postemergence herbicidal rating, CASOB",[5]; rate 0.0320 kg/ha,9.0
same,"Postemergence herbicidal rating, CASOB",[5]; rate 0.0620 kg/ha,9.0
same,AMBEL herbicidal rating,[6]; rate 0.0320 kg/ha,7.0
same,AMBEL herbicidal rating,[6]; rate 0.0620 kg/ha,9.0
same,"Postemergence herbicidal rating, AMBEL",[6]; rate 0.0320 kg/ha,9.0
same,"Postemergence herbicidal rating, AMBEL",[6]; rate 0.0620 kg/ha,9.0
same,"herbicidal rating, ECHORC",[7]; rate 0.0320 kg/ha,9.0
same,"herbicidal rating, ECHORC",[7]; rate 0.0620 kg/ha,8.0
same,"herbicidal rating, ECHORC",[7]; rate 0.1250 kg/ha,9.0
same,"herbicidal rating, SAGPY",[8]; rate 0.0080 kg/ha,0.0
same,"herbicidal rating, SAGPY",[8]; rate 0.0320 kg/ha,4.7
same,"herbicidal rating, SAGPY",[8]; rate 0.0620 kg/ha,3.5
same,GLXMAW herbicidal rating,[9]; rate 0.0320 kg/ha,6.5
same,GLXMAW herbicidal rating,[9]; rate 0.0620 kg/ha,6.5
same,"Postemergence herbicidal rating, GLXMAW",[9]; rate 0.0320 kg/ha,9.0
same,"Postemergence herbicidal rating, GLXMAW",[9]; rate 0.0620 kg/ha,9.0
same,GLXMAW preemergence herbicidal rating,[10]; Rate 0.0620 kg/ha,7.5
same,Preemergence herbicidal rating GLXMAW,[10]; Rate 0.0620 kg/ha,6.5
same,GLXMAW preemergence herbicidal rating,[10]; Rate 0.1250 kg/ha,9.0
same,Preemergence herbicidal rating GLXMAW,[10]; Rate 0.1250 kg/ha,7.0
same,GLXMAW preemergence herbicidal rating,[10]; Rate 0.2500 kg/ha,9.0
same,Preemergence herbicidal rating GLXMAW,[10]; Rate 0.2500 kg/ha,7.0
same,ZEAMX preemergence herbicidal rating,"ZEAMX (Corn, Field) [11]; Rate 0.0620 kg/ha",5.0
same,Preemergence herbicidal rating ZEAMX,"ZEAMX (Corn, Field) [11]; Rate 0.0620 kg/ha",4.5
same,ZEAMX preemergence herbicidal rating,"ZEAMX (Corn, Field) [11]; Rate 0.1250 kg/ha",7.0
same,Preemergence herbicidal rating ZEAMX,"ZEAMX (Corn, Field) [11]; Rate 0.1250 kg/ha",6.0
same,ZEAMX preemergence herbicidal rating,"ZEAMX (Corn, Field) [11]; Rate 0.2500 kg/ha",9.0
same,Preemergence herbicidal rating ZEAMX,"ZEAMX (Corn, Field) [11]; Rate 0.2500 kg/ha",6.5
same,IPOHE herbicidal rating,[12]; rate 0.0320 kg/ha,9.0
same,IPOHE herbicidal rating,[12]; rate 0.0620 kg/ha,9.0
same,"Postemergence herbicidal rating, IPOHE",[12]; rate 0.0320 kg/ha,9.0
same,"Postemergence herbicidal rating, IPOHE",[12]; rate 0.0620 kg/ha,9.0
same,ZEAMX herbicidal rating,"ZEAMX (Corn, Field) [13]; rate 0.0320 kg/ha",5.0
same,ZEAMX herbicidal rating,"ZEAMX (Corn, Field) [13]; rate 0.0620 kg/ha",7.0
same,"Postemergence herbicidal rating, ZEAMX","ZEAMX (Corn, Field) [13]; rate 0.0320 kg/ha",6.0
same,"Postemergence herbicidal rating, ZEAMX","ZEAMX (Corn, Field) [13]; rate 0.0620 kg/ha",7.0
same,"herbicidal rating, CYPIR",CYPIR (Cyperus iria); rate 0.0320 kg/ha,9.0
same,"herbicidal rating, CYPIR",CYPIR (Cyperus iria); rate 0.0620 kg/ha,7.0
same,ORYSAT preemergence herbicidal rating,"ORYSAT (Rice, Tebonnet); Rate 0.0620 kg/ha",5.5
same,Preemergence herbicidal rating ORYSAT,"ORYSAT (Rice, Tebonnet); Rate 0.0620 kg/ha",3.0
same,ORYSAT preemergence herbicidal rating,"ORYSAT (Rice, Tebonnet); Rate 0.1250 kg/ha",8.0
same,Preemergence herbicidal rating ORYSAT,"ORYSAT (Rice, Tebonnet); Rate 0.1250 kg/ha",4.5
same,ORYSAT preemergence herbicidal rating,"ORYSAT (Rice, Tebonnet); Rate 0.2500 kg/ha",9.0
same,Preemergence herbicidal rating ORYSAT,"ORYSAT (Rice, Tebonnet); Rate 0.2500 kg/ha",5.5
same,IPOHE preemergence herbicidal rating,[14]; Rate 0.0620 kg/ha,9.0
same,Preemergence herbicidal rating IPOHE,[14]; Rate 0.0620 kg/ha,6.0
same,IPOHE preemergence herbicidal rating,[14]; Rate 0.1250 kg/ha,9.0
same,Preemergence herbicidal rating IPOHE,[14]; Rate 0.1250 kg/ha,6.0
same,IPOHE preemergence herbicidal rating,[14]; Rate 0.2500 kg/ha,9.0
same,Preemergence herbicidal rating IPOHE,[14]; Rate 0.2500 kg/ha,9.0
same,GALAP preemergence herbicidal rating,GALAP (Galium aparine) [15]; Rate 0.0620 kg/ha,5.0
same,Preemergence herbicidal rating GALAP,GALAP (Galium aparine) [15]; Rate 0.0620 kg/ha,9.0
same,GALAP preemergence herbicidal rating,GALAP (Galium aparine) [15]; Rate 0.1250 kg/ha,9.0
same,Preemergence herbicidal rating GALAP,GALAP (Galium aparine) [15]; Rate 0.1250 kg/ha,9.0
same,GALAP preemergence herbicidal rating,GALAP (Galium aparine) [15]; Rate 0.2500 kg/ha,9.0
same,Preemergence herbicidal rating GALAP,GALAP (Galium aparine) [15]; Rate 0.2500 kg/ha,9.0
same,"herbicidal rating, CYPSE",[16]; rate 0.0620 kg/ha,9.0
same,"herbicidal rating, CYPSE",[16]; rate 0.1250 kg/ha,9.0
same,GALAP herbicidal rating,GALAP (Galium aparine) [17]; rate 0.0320 kg/ha,2.0
same,GALAP herbicidal rating,GALAP (Galium aparine) [17]; rate 0.0620 kg/ha,6.0
same,"Postemergence herbicidal rating, GALAP",GALAP (Galium aparine) [17]; rate 0.0320 kg/ha,6.0
same,"Postemergence herbicidal rating, GALAP",GALAP (Galium aparine) [17]; rate 0.0620 kg/ha,7.0
same,CHEAL preemergence herbicidal rating,[18]; Rate 0.0620 kg/ha,9.0
same,Preemergence herbicidal rating CHEAL,[18]; Rate 0.0620 kg/ha,9.0
same,CHEAL preemergence herbicidal rating,[18]; Rate 0.1250 kg/ha,9.0
same,Preemergence herbicidal rating CHEAL,[18]; Rate 0.1250 kg/ha,9.0
same,CHEAL preemergence herbicidal rating,[18]; Rate 0.2500 kg/ha,9.0
same,Preemergence herbicidal rating CHEAL,[18]; Rate 0.2500 kg/ha,9.0
same,CASOB preemergence herbicidal rating,[19]; Rate 0.0620 kg/ha,5.0
same,Preemergence herbicidal rating CASOB,[19]; Rate 0.0620 kg/ha,2.5
same,CASOB preemergence herbicidal rating,[19]; Rate 0.1250 kg/ha,9.0
same,Preemergence herbicidal rating CASOB,[19]; Rate 0.1250 kg/ha,3.0
same,CASOB preemergence herbicidal rating,[19]; Rate 0.2500 kg/ha,9.0
same,Preemergence herbicidal rating CASOB,[19]; Rate 0.2500 kg/ha,4.5
same,AMBEL preemergence herbicidal rating,[20]; Rate 0.0620 kg/ha,9.0
same,Preemergence herbicidal rating AMBEL,[20]; Rate 0.0620 kg/ha,9.0
same,AMBEL preemergence herbicidal rating,[20]; Rate 0.1250 kg/ha,9.0
same,Preemergence herbicidal rating AMBEL,[20]; Rate 0.1250 kg/ha,9.0
same,AMBEL preemergence herbicidal rating,[20]; Rate 0.2500 kg/ha,9.0
same,Preemergence herbicidal rating AMBEL,[20]; Rate 0.2500 kg/ha,9.0
